# Values of other authors as cited in patent US9925167B2, “Agents for the control of parasites on animals” (Hansen-AB GmbH, priority 2011, dated 2018).
# Tests used:
# paresthesias = settings: humans
# hepatotoxic damage = settings: orally administered; Aldana et al. 2001
# [1] = system: fenvalerate-induced skin sensitizations; settings: guinea pigs, Malley et al. 1985
Compound,Effect on paresthesias triggered by cyano-pyrethroid active substances such as fenvalerate (paresthesias; Flannigan et al. 1985),"Effect of topical application in paresthesias after pyrethroid-induced damage (paresthesias; topical, Bradberry et al. 2005)",Effect on hepatotoxic damage after i.p. application of cypermethrin (hepatotoxic damage),Effect of dermal pre-treatment on fenvalerate-induced skin sensitizations [1]
"CC(=O)Oc1c(C)c(C)c2c(c1C)CC[C@@](C)(CCC[C@H](C)CCC[C@H](C)CCCC(C)C)O2 [vitamin E acetate, Alpha-tocopheryl acetate]",positive effects,positive effect,positive effects,
vitamin E,,,,reduction
